Assay results reported in ChEMBL document CHEMBL5226321, “Ivermectin: A Promising Therapeutic for Fighting Malaria. Current Status and Perspective” (J Med Chem, 2021).

Columns and labels:
Aedes aegypti = experiment: Insecticidal in Aedes aegypti larvae measured after 48 hrs; assay type: functional
Anopheles sp. [1] = experiment: Insecticidal in Anopheles sp. assessed as lethal concentration membrane-fed with compound treated blood observed after 4 days; assay type: functional, organism-based; conditions: time 4.0 day
Plasmodium berghei [2] = experiment: In vivo antimalarial activity against liver stage Plasmodium berghei infected in mouse assessed as increase in mouse survival days at 10 mg/kg; assay type: functional, organism-based
Anopheles stephensi = experiment: Insecticidal in Anopheles stephensi assessed as mortality rate fed with blood of compound treated rabbits at 0.34 mg/kg, sc 4 to 6 days post-injection relative to control; assay type: functional, organism-based; conditions: time 4-6 day
Anopheles gambiae = experiment: Insecticidal in Anopheles gambiae assessed as median lethal concentration fed with compound treated bovine blood observed after 9 days; assay type: functional, organism-based; conditions: time 9.0 day
Plasmodium berghei [3] = experiment: In vivo antimalarial activity against blood stage Plasmodium berghei transfected with GFP infected in mouse assessed as supression of parasitemia at 0.5 mg/kg for 3 days relative to control; assay type: functional, organism-based; conditions: time 3.0 day
Anopheles arabiensis = experiment: Insecticidal in Anopheles arabiensis assessed as mortality fed with compound treated bovine blood at 200 microg/kg observed within 2 to 4 days after blood feeding relative to control; assay type: functional, organism-based; conditions: dose 200.0 µg/kg, time 2-4 day
Plasmodium berghei [4] = experiment: In vivo antimalarial activity against blood stage Plasmodium berghei transfected with GFP infected in mouse assessed as increase in mouse survival days at 0.5 mg/kg for 3 days; assay type: functional, organism-based; conditions: time 3.0 day
Anopheles sp. [5] = experiment: In vivo Insecticidal in Anopheles sp. assessed as lethality membrane-fed with compound treated human blood at 400 microg/kg per day in presence of combination of 120 mg dihydroartemisinin, 960 mg piperaquine and 30 mg primaquine observed after 7 days; assay type: functional, organism-based; conditions: dose 400.0 µg/kg, time 7.0 day
Plasmodium vivax = experiment: Antimalarial activity against Plasmodium vivax assessed as reduction in […] in Anopheles sp. mosquito midgut fed with blood isolated from compound treated parasite-infected human at 40 ng/ml observed after 7 days relative to control; assay type: functional, organism-based; conditions: time 7.0 day
Anopheles sp. [6] = experiment: Insecticidal in Anopheles sp. assessed as reduction in survival rate fed with compound treated human blood at 400 microg/kg observed in 48 hrs relative to control; assay type: functional, organism-based; conditions: dose 400.0 µg/kg
Anopheles sp. [7] = experiment: Insecticidal in Anopheles sp. infected with Plasmodium falciparum gametocytes assessed as mortality fed with compound treated bovine blood at 200 microg/kg observed within 4 days feeding at 7 days post treatment relative to control; assay type: functional, organism-based; conditions: dose 200.0 µg/kg, time 4.0 day

IVERMECTIN
LC50 (Aedes aegypti): 23.4 ppb | LC50 (Anopheles sp. [1]): 1.47 µg/mL | Survival (Plasmodium berghei [2]): 10 days | mortality (Anopheles stephensi): 93% | LC50 (Anopheles gambiae): 19.8 ppb | Activity (Plasmodium berghei [3]): 40% | mortality (Anopheles arabiensis): 80% | Survival (Plasmodium berghei [4]): 23 days | LC50 (Anopheles sp. [5]): 0.00286 µg/mL | inhibition (Plasmodium vivax): 86% | Survival (Anopheles sp. [6]): 31% | mortality (Anopheles sp. [7]): 100%
